Biological target: Huntingtin (Homo sapiens, UniProt P42858)
Assay: Inhibition of endogenous Huntingtin protein (unknown origin) incubated for overnight in presence of MW1/MAB2166 monoclonal antibody by ELISA-based MSD electrochemiluminescence assay

Huntingtin, sequence (P42858 whole entry): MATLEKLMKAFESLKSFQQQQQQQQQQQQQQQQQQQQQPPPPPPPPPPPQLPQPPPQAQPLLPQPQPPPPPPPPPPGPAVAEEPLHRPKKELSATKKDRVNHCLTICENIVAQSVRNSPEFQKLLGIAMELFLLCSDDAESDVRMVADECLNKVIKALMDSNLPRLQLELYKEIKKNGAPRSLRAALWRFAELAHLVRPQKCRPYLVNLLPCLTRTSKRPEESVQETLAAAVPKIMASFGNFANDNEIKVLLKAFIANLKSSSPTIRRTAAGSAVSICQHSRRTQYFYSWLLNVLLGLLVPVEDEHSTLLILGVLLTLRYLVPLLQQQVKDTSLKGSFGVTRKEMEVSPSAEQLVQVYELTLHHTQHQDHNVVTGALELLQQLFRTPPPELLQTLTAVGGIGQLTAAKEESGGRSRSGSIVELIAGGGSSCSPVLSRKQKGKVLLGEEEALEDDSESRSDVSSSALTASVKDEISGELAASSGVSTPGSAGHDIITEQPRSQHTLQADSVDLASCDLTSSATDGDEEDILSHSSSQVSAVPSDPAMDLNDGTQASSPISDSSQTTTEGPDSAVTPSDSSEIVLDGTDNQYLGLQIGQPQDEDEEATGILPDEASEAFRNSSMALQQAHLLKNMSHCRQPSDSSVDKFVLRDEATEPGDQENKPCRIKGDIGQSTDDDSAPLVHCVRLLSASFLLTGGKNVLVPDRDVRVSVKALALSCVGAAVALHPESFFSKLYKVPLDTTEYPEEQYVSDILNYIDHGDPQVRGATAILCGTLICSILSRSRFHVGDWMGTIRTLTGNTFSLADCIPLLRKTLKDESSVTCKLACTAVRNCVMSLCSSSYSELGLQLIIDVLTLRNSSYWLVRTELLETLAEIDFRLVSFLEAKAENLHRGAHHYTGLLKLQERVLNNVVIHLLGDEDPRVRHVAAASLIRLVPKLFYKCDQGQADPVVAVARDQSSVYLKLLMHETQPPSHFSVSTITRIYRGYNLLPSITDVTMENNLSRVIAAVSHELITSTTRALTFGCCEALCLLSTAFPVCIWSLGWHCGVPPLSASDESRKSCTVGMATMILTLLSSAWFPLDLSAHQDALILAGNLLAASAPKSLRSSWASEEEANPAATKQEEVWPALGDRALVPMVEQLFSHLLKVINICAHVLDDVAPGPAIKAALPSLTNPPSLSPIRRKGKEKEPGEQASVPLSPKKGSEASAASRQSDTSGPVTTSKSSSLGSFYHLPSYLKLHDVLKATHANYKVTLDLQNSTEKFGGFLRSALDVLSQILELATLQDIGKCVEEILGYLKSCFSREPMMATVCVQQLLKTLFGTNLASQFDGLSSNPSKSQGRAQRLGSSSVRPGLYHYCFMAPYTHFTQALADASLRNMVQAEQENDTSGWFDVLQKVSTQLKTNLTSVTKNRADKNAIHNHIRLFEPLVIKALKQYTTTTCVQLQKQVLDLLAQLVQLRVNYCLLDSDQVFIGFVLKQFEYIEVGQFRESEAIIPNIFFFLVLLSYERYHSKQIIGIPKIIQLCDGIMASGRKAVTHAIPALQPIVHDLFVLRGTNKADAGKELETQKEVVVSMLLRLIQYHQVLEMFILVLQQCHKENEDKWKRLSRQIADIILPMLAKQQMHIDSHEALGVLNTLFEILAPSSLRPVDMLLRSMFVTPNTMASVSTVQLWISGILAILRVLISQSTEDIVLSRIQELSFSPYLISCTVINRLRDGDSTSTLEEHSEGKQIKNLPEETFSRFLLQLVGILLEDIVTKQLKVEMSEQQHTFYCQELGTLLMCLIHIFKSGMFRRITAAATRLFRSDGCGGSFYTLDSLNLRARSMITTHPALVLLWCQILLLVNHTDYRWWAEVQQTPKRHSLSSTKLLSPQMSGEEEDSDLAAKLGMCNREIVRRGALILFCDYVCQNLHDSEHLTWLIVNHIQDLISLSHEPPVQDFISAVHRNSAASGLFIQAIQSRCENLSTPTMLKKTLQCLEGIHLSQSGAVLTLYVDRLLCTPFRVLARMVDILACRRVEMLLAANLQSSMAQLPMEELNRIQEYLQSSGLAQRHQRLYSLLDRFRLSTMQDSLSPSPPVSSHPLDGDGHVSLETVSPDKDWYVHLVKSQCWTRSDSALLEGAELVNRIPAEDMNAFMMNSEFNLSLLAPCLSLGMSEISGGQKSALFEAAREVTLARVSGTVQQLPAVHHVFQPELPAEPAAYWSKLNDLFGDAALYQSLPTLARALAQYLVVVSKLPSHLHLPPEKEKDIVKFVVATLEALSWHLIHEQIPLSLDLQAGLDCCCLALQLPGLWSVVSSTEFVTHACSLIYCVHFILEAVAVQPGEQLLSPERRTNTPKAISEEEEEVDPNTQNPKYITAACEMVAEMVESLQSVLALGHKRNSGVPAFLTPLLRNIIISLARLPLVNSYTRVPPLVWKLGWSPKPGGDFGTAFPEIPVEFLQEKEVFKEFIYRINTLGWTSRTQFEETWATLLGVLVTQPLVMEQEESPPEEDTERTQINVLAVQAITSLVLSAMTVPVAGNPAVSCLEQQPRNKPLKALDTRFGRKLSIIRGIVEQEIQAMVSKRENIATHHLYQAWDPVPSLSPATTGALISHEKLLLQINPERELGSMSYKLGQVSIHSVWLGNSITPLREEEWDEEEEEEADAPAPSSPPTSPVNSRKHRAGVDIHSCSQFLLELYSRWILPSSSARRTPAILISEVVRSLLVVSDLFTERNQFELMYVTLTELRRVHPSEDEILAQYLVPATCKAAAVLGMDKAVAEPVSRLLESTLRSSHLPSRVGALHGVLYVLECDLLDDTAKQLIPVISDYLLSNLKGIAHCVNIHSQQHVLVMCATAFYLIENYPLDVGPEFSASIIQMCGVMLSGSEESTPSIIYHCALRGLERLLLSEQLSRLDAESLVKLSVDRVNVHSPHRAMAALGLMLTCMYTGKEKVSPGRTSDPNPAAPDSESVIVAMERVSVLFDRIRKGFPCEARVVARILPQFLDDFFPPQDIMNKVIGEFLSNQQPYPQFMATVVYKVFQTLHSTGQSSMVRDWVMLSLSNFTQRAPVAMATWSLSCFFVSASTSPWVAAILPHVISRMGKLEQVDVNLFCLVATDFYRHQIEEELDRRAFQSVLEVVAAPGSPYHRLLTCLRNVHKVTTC

SMILES | IC50
Cc1cn2cc(-c3ccc(-c4cnc(N5CCN[C@@H](C(C)C)C5)nn4)c(O)c3)ncc2n1 | 2.3 nM
Oc1cc(-c2c[nH]nc2F)ccc1-c1cnc(N2CCN[C@@H](C3CC3)C2)nn1 | 2.1 nM
CCC1CN(c2ncc(-c3ccc(-c4cc(F)c5nc(C)cn5c4)cc3O)nn2)CCN1 (stereo unspecified) | 2.2 nM

Continued by falling IC50, values first:

IC50 | SMILES
2.1 nM | CC1CN(c2ncc(-c3ccc(-c4cc(F)c5nn(C)cc5c4)cc3O)nn2)CCN1 (stereo unspecified)
1.7 nM | Cn1nc2cc(-c3ccc(-c4cnc(N5CCN[C@@H](C6CC6)C5)nn4)c(O)c3)cnc2n1
1.6 nM | Cn1cc2cc(-c3ccc(-c4cnc(N5CCNC(CO)C5)nn4)c(O)c3)cc(F)c2n1 (stereo unspecified)

— ChEMBL document CHEMBL4840382, “Novel Substituted Heteroaryl Compounds for Treating Huntington's Disease” (ACS Med Chem Lett, 2021)
